In patent publication US9187465B2, “Oxazole tyrosine kinase inhibitors” (Sareum Limited, priority 2007, dated 2015):

How the values were obtained:
Assay type in all cases: biochemical
[1] = biological target: T1, human FLT4 (Homo sapiens, UniProt P35916); assay: FLT4 kinase assay (DELFIA enzyme inhibition); conditions: read-out: FLT4 IC50
T1 construct: a construct expressing the human FLT4 (789-1207) with an amino terminal GST tag; host or cells: Sf9 insect cells (baculovirus)
Summary of the method: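 GST-tagged human FLT4 (789-1207) from Sf9 cells phosphorylates a biotinylated MET (Tyr1253)-derived peptide for 30 min at room temperature, stopped with EDTA. Phosphopeptide is captured on Neutravidin and detected with Eu-labelled anti-phosphotyrosine antibody by time-resolved fluorescence; IC50 from % inhibition curves.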

[2] = biological target: T2, human FLT3 (Homo sapiens, UniProt P36888); assay: FLT3 kinase assay (DELFIA enzyme inhibition)
T2 construct: a construct expressing the human FLT3 (564-993) with an amino terminal GST tag; host or cells: Sf9 insect cells (baculovirus)
T2 sequence (P36888 564-993): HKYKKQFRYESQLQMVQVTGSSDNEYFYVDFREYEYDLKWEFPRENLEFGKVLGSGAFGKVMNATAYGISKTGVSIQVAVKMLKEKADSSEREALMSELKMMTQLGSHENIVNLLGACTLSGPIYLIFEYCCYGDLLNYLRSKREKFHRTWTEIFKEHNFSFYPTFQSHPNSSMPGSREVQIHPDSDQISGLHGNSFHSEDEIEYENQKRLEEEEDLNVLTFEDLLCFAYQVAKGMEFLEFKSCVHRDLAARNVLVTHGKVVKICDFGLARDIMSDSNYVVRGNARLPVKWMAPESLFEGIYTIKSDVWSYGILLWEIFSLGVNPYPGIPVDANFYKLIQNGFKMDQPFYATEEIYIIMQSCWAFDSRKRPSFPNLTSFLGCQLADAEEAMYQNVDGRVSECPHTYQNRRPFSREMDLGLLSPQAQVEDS
Description: A GST-kinase fusion protein of 70 KDa was produced using sf9 baculovirus expression system, with a construct expressing the human FLT3 (564-993) with an amino terminal GST tag. The protein was purified by one-step affinity chromatography using glutathione-agarose.
FLT3 enzyme activity is determined using a Dissociation Enhanced Lanthanide Fluorescent Immunoassay (DELFIA) with a peptide substrate derived from the Gastrin Precursor (Tyr 87) peptide […] with a core sequence: EAYGW.
The amount of phosphorylated peptide produced is detected by means of a phospho-Tyrosine specific Europium-labelled antibody using Time-Resolved Fluorescence at Excitation 360-35 nm and Emission 620-35 nm.
Assay reactions are set up in a 25 uL final volume on a 96 well plate. […] The reaction is allowed to proceed for 30 minutes at room temperature before stopping with 100 μL Stop solution comprising of 100 mM EDTA, 1×BSA blocker in TBS (Perbio) and 0.05% Surfact-Amps20 (Perbio).
The stopped reaction is transferred to a black 96-well Neutravidin-coated plate (Perbio) and incubated for 30 minutes to capture the biotinylated peptide substrate. After washing wells 3 times with 200 uL TBS/T buffer, Anti-Phospho-Tyr-100 antibody labelled with Eu—N1 (Perkin Elmer AD0159) is added to all wells for 60 minutes at room temperature. After a repeat washing step, DELFIA Enhancement solution (Perkin Elmer) is added to all wells for 5 minutes and the fluorescence measured on a plate reader Analyst HT (Molecular Devices).
The % inhibition of the activity is calculated and plotted in order to determine the concentration of test compound required to inhibit 50% of the enzyme activity (IC50).

[3] = biological target: T3, human Aurora A (Homo sapiens, UniProt O14965); assay: Aurora A kinase assay (DELFIA enzyme inhibition); conditions: read-out: Aurora A IC50
T3 construct: Histidine tag (N); host or cells: Sf9 insect cells (baculovirus)
T3 sequence (O14965 1-403): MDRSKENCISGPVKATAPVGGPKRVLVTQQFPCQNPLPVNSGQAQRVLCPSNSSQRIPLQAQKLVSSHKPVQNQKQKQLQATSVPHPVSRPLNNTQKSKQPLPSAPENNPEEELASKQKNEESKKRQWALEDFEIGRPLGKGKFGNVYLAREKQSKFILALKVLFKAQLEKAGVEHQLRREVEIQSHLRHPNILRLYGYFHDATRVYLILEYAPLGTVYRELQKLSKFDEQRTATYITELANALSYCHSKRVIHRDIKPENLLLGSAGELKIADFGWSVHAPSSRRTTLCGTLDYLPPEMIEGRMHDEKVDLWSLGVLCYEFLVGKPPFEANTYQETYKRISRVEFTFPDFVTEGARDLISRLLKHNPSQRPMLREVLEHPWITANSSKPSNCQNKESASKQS
Summary of the method: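 DELFIA read-out (time-resolved Eu fluorescence, 620 nm emission) after Neutravidin capture of biotinylated peptide substrate and antibody detection. Reaction: Ni-agarose-purified Aurora A, 30 min at room temperature, stopped with 100 mM EDTA.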

T1 sequence (P35916 789-1207): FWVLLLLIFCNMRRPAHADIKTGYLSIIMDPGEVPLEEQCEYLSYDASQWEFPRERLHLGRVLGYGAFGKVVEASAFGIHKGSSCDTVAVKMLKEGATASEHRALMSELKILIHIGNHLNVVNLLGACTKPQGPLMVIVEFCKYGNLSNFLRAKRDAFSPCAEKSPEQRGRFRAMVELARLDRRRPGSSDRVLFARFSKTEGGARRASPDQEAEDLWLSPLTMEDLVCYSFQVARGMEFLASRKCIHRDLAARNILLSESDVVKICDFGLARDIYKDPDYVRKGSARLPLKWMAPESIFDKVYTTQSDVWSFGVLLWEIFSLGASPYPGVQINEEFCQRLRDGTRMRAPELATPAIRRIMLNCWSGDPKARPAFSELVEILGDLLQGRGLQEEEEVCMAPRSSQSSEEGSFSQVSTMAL

Work on NC(=O)c1nc(-c2c(F)cccc2F)oc1Nc1ccc(-n2ccnc2)cc1 [Example Q-24, 5-(4-(1H-imidazol-1-yl)phenylamino)-2-(2,6-difluorophenyl)oxazole-4-carboxamide] yielded an IC50 [1] of less than 10 µM, an IC50 [2] of less than 10 µM and an IC50 [3] of less than 10 µM.
NC(=O)c1nc(-c2c(F)cccc2F)oc1Nc1ccc(S(N)(=O)=O)cc1 [Example Q-25, 2-(2,6-difluorophenyl)-5-(4-(sulfonamide)phenylamino)oxazole-4-carboxamide] gave an IC50 [1] of less than 10 µM, an IC50 [2] of less than 10 µM and an IC50 [3] of less than 10 µM.
For CNS(=O)(=O)c1ccc(Nc2oc(-c3c(F)cccc3F)nc2C(N)=O)cc1 [Example Q-27, 2-(2,6-difluorophenyl)-5-(4-(N′-methylsulfonamide)phenylamino)oxazole-4-carboxamide], the IC50 [1] was less than 10 µM, the IC50 [2] was less than 10 µM and the IC50 [3] was less than 10 µM.
NC(=O)c1nc(-c2c(F)cccc2F)oc1Nc1ccc(S(=O)(=O)N2CCOCC2)cc1 [Example Q-29, 2-(2,6-difluorophenyl)-5-(4-(morpholinosulfonyl)phenylamino)oxazole-4-carboxamide] was tested, and the IC50 [1] was less than 10 µM, the IC50 [2] was less than 10 µM and the IC50 [3] was less than 10 µM.
With NC(=O)c1nc(-c2c(F)cccc2F)oc1Nc1ccc(-n2cncn2)cc1 [Example Q-30, 5-(4-(1H-1,2,4-triazol-1-yl)phenylamino)-2-(2,6-difluorophenyl)oxazole-4-carboxamide] the IC50 [1] was less than 10 µM, the IC50 [2] was less than 100 µM and the IC50 [3] was less than 10 µM.
NC(=O)c1nc(-c2c(F)cccc2F)oc1Nc1ccc(-n2cnnn2)cc1 [Example Q-31, 5-(4-(1H-tetrazol-1-yl)phenylamino)-2-(2,6-difluorophenyl)oxazole-4-carboxamide] showed an IC50 [1] of less than 10 µM, an IC50 [2] of less than 10 µM and an IC50 [3] of less than 10 µM.
Compound NC(=O)c1nc(-c2c(F)cccc2F)oc1Nc1ccc(C2=NNC(=O)C2)cc1 [Example Q-32, 2-(2,6-difluorophenyl)-5-(4-(5-oxo-4,5-dihydro-1H-pyrazol-3-yl)phenylamino)oxazole-4-carboxamide] has an IC50 [1] of less than 10 µM, an IC50 [2] of less than 10 µM and an IC50 [3] of less than 10 µM.
Work on NC(=O)c1nc(-c2c(F)cccc2F)oc1Nc1ccc(-c2cc(CO)on2)cc1 [Example Q-33, 2-(2,6-difluorophenyl)-5-(4-(5-(hydroxymethyl)isoxazol-3-yl)phenylamino)oxazole-4-carboxamide] yielded an IC50 [1] of less than 10 µM, an IC50 [2] of less than 100 µM and an IC50 [3] of less than 10 µM.
In the case of NC(=O)c1nc(-c2c(F)cccc2F)oc1Nc1ccc(-c2nnn[nH]2)cc1 [Example Q-34, 5-(4-(1H-tetrazol-5-yl)phenylamino)-2-(2,6-difluorophenyl)oxazole-4-carboxamide], the IC50 [1] is reported as less than 10 µM, the IC50 [2] is reported as less than 10 µM and the IC50 [3] is reported as less than 10 µM.
NC(=O)c1nc(-c2c(Cl)cccc2Cl)oc1Nc1ccc(N2CCNCC2)cc1 [Example Q-35, 2-(2,6-dichlorophenyl)-5-(4-(piperazin-1-yl)phenylamino)oxazole-4-carboxamide] showed an IC50 [1] of less than 10 µM, an IC50 [2] of less than 10 µM and an IC50 [3] of less than 10 µM.
In the case of Cc1cccc(C)c1-c1nc(C(N)=O)c(Nc2ccc(N3CCNCC3)cc2)o1 [Example Q-37, 2-(2,6-dimethylphenyl)-5-(4-(piperazin-1-yl)phenylamino)oxazole-4-carboxamide], the IC50 [1] is reported as less than 10 µM, the IC50 [2] is reported as less than 10 µM and the IC50 [3] is reported as less than 10 µM.
With NC(=O)c1nc(-c2c(F)cccc2F)oc1Nc1ccc(N2CCNCC2)nc1 [Example Q-47, 2-(2,6-difluorophenyl)-5-(6-(piperazin-1-yl)pyridin-3-ylamino)oxazole-4-carboxamide] the IC50 [1] was less than 10 µM, the IC50 [2] was less than 10 µM and the IC50 [3] was less than 10 µM.
NC(=O)c1nc(-c2c(F)cccc2F)oc1Nc1ccc(CN2CCCCC2)cc1 [Example Q-56, 2-(2,6-difluorophenyl)-5-(4-(piperidin-1-ylmethyl)phenylamino)oxazole-4-carboxamide] gave an IC50 [1] of less than 10 µM, an IC50 [2] of less than 10 µM and an IC50 [3] of less than 10 µM.
For CS(=O)(=O)c1ccc(Nc2oc(-c3cccc4[nH]ncc34)nc2C(N)=O)cc1 [Example Q-58, 2-(1H-indazol-4-yl)-5-(4-(methylsulfonyl)phenylamino)oxazole-4-carboxamide], the IC50 [1] was less than 10 µM, the IC50 [2] was less than 10 µM and the IC50 [3] was less than 10 µM.
In the case of NC(=O)c1nc(-c2cccc3[nH]ncc23)oc1Nc1ccc(N2CCN(C(=O)C(F)(F)F)CC2)cc1 [Example Q-60, 2-(1H-indazol-4-yl)-5-(4-(4-(2,2,2-trifluoroacetyl)piperazin-1-yl)phenylamino)oxazole-4-carboxamide], the IC50 [1] is reported as less than 10 µM, the IC50 [2] is reported as less than 10 µM and the IC50 [3] is reported as less than 10 µM.
With COc1ccc(-c2oc(Nc3ccccc3)nc2C(N)=O)cc1 [Example R-1, 5-(4-methoxyphenyl)-2-(phenylamino)oxazole-4-carboxamide] the IC50 [1] was less than 10 µM, the IC50 [2] was less than 10 µM and the IC50 [3] was less than 10 µM.
COc1ccc(-c2oc(Nc3ccccc3OC)nc2C(N)=O)cc1 [Example R-2, 5-(4-methoxyphenyl)-2-(2-methoxyphenylamino)oxazole-4-carboxamide] gave an IC50 [1] of less than 10 µM, an IC50 [2] of less than 10 µM and an IC50 [3] of less than 10 µM.
COc1ccc(-c2oc(Nc3ccccc3C)nc2C(N)=O)cc1 [Example R-5, 2-(o-toluidino)-5-(4-methoxyphenyl)oxazole-4-carboxamide] gave an IC50 [1] of less than 10 µM, an IC50 [2] of less than 10 µM and an IC50 [3] of less than 10 µM.
COc1ccc(-c2oc(Nc3ccccc3F)nc2C(N)=O)cc1 [Example R-8, 2-(2-fluorophenylamino)-5-(4-methoxyphenyl)oxazole-4-carboxamide] gave an IC50 [1] of less than 10 µM, an IC50 [2] of less than 10 µM and an IC50 [3] of less than 10 µM.
In the case of COc1cccc(Nc2nc(C(N)=O)c(-c3ccc(N4CCNCC4)cc3)o2)c1 [Example R-12, 2-(3-methoxyphenylamino)-5-(4-(piperazin-1-yl)phenyl)oxazole-4-carboxamide], the IC50 [1] is reported as less than 10 µM, the IC50 [2] is reported as less than 10 µM and the IC50 [3] is reported as less than 10 µM.
Work on NC(=O)c1nc(Nc2cccnc2)oc1-c1ccc(N2CCNCC2)cc1 [Example R-14, 5-(4-(piperazin-1-yl)phenyl)-2-(pyridin-3-ylamino)oxazole-4-carboxamide] yielded an IC50 [1] of less than 10 µM, an IC50 [2] of less than 10 µM and an IC50 [3] of less than 10 µM.
NC(=O)c1nc(Nc2ccc3[nH]ncc3c2)oc1-c1ccc(N2CCNCC2)cc1 [Example R-15, 2-(1H-indazol-5-ylamino)-5-(4-(piperazin-1-yl)phenyl)oxazole-4-carboxamide] was tested, and the IC50 [1] was less than 10 µM, the IC50 [2] was less than 10 µM and the IC50 [3] was less than 10 µM.
NC(=O)c1nc(Nc2ccc3cn[nH]c3c2)oc1-c1ccc(N2CCNCC2)cc1 [Example R-16, 2-(1H-indazol-6-ylamino)-5-(4-(piperazin-1-yl)phenyl)oxazole-4-carboxamide] gave an IC50 [1] of less than 10 µM, an IC50 [2] of less than 10 µM and an IC50 [3] of less than 10 µM.
For NC(=O)c1nc(Nc2cnn(Cc3ccccc3)c2)oc1-c1ccc(N2CCNCC2)cc1 [Example R-17, 2-(1-benzyl-1H-pyrazol-4-ylamino)-5-(4-(piperazin-1-yl)phenyl)oxazole-4-carboxamide], the IC50 [1] was less than 10 µM, the IC50 [2] was less than 10 µM and the IC50 [3] was less than 10 µM.
